Experimental data as given in patent publication US20260242416A1, “ANTIMICROBIAL PEPTIDES” (priority 2023, published 2026).
Converted amounts (≈) assume the structure as drawn. Where a SMILES comes first, the peptide text is derived from it.

Tests used:
E. coli ATCC 25922 = type: cell-based, Escherichia coli; conditions: ATCC 25922
Summary of the method: (§1)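 MIC taken as lowest peptide level showing no visible growth after 20-24 h at 37° C. Twofold series 128-0.5 μg/mL in Mueller-Hinton broth, polypropylene plates, final inoculum 2-8×10^5 cfu/mL, per CLSI with cationic-peptide adaptations.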

[1] = test system: Salmonella enterica serovar Enteritidis (human clinical isolate); type: cell-based; conditions: serovar Enteritidis (human clinical isolate)
Summary of the method: as §1

S. aureus ATCC 29213 = type: cell-based, Staphylococcus aureus; conditions: ATCC 29213
Summary of the method: as §1

[2] = test system: E. coli ATCC 25922, Salmonella Enteritidis, S. aureus ATCC 29213; assay: Broth microdilution, panel result (at least one / all strains), Example 2; type: cell-based; set-up: key to inhibitory activity (asterisk): *Indicates inhibitory activity; conditions: for inhibitory activity (asterisk): Table 14, against at least one of E. coli ATCC 25922, Salmonella Enteritidis, S. aureus ATCC 29213
Protocol: The antimicrobial activity of the putative AMPs was determined by a broth microdilution assay as described by the Clinical and Laboratory Standards Institute, with the published adaptations for testing of cationic peptides. Escherichia coli 25922 and Staphylococcus aureus 29213 isolates were purchased from the American Type Culture Collection (ATCC; Manassas, VA, USA). A human clinical isolate of Salmonella enterica serovar Enteritidis was provided by the BC Centre for Disease Control. Bacteria from stocks stored at −80° C. were streaked onto nonselective Columbia blood agar with 5% sheep blood (Oxoid) and incubated overnight at 37° C. Next, 2-4 colonies were streaked onto a new agar plate to ensure uniform health of colonies used in the broth microdilution assay. Isolated colonies were suspended in MHB and the optical density was measured with a spectrophotometer to create an initial inoculum concentration of approximately 1×10^8 cfu/mL. The inoculum was diluted 1:250 to a final concentration of 2-8×10^5 cfu/mL, which was confirmed by performing a Total Viability Count (TVC). The TVC consisted of plating a 1:1000 dilution of the final inoculum on nonselective media and was also used to confirm the health and purity of the inoculum in each trial.
Lyophilized 80 μg peptide aliquots synthesized by GenScript (Piscataway, NJ, USA) were resuspended to 1.28 mg/mL with UltraPure water (Thermo Fisher Scientific, Waltham, MA, USA) and serially diluted in polypropylene 96-well microtiter plates (Greiner Bio-One #650261, Kremsmunster, Austria) from 128 down to 0.5 μg/mL. Two columns per plate were reserved for growth and sterility controls. Inoculum was added to the wells containing the peptide and the growth control. Plates were incubated for 20-24 h at 37° C. The minimum inhibitory concentration (MIC) was determined as the lowest peptide concentration where there was no visible bacterial growth.

| Compound | MIC (ug/mL) E. coli (E. coli ATCC 25922) | MIC (ug/mL) S. Enteritidis [1] | MIC (ug/mL) S. aureus (S. aureus ATCC 29213) | inhibitory activity (asterisk) [2] | spectrum of antimicrobial activity ([2]; panel of E. coli, Salmonella Enteritidis, S. aureus, up to 128 μg/mL) |
| --- | --- | --- | --- | --- | --- |
| CC[C@H](C)[C@H](NC(=O)[C@@H]1CCCN1C(=O)[C@H](CS)NC(=O)[C@H](C)NC(=O)[C@@H](N)Cc1ccccc1)C(=O)NCC(=O)N[C@@H](Cc1ccccc1)C(=O)N[C@@H](Cc1ccccc1)C(=O)N[C@@H](CCCNC(=N)N)C(=O)N[C@@H](CC(C)C)C(=O)N[C@@H](CCCCN)C(=O)N[C@@H](CCCNC(=N)N)C(=O)O [CaCa1, FACPIGFFRLKR] (H-FACPIGFFRLKR-OH; N-terminus and C-terminus assumed) | 128/>128/>128 ug/mL | 128/>128/>128 ug/mL | 128/>128/>128 ug/mL | 826.* FACPIGFFRLKR | – |
| CC[C@H](C)[C@H](NC(=O)CNC(=O)[C@H](C)NC(=O)[C@@H](NC(=O)[C@@H](NC(=O)[C@H](CO)NC(=O)[C@H](C)NC(=O)[C@@H](NC(=O)[C@H](CCCCN)NC(=O)[C@H](CCCCN)NC(=O)[C@H](C)NC(=O)[C@@H](NC(=O)[C@H](CC(=O)O)NC(=O)[C@H](CC(C)C)NC(=O)[C@H](Cc1c[nH]c2ccccc12)NC(=O)CN)[C@@H](C)CC)C(C)C)C(C)C)C(C)C)C(=O)N[C@H](C(=O)N[C@@H](CCCCN)C(=O)N[C@@H](CCCNC(=N)N)C(=O)O)C(C)C [LiVe1, GWLDIAKKVASVVAGIVKR] (H-GWLDIAKKVASVVAGIVKR-OH; N-terminus and C-terminus assumed) | 4 to 8 µg/mL | 32 µg/mL (≈ 15.9 µM) | 16 to 32 µg/mL | 37.* GWLDIAKKVASVVAGIVKR | – |
| CC[C@H](C)[C@H](NC(=O)[C@H](CC(=O)O)NC(=O)[C@H](CC(C)C)NC(=O)[C@H](Cc1c[nH]c2ccccc12)NC(=O)CN)C(=O)N[C@@H](C)C(=O)N[C@@H](CCCCN)C(=O)N[C@@H](CCCCN)C(=O)N[C@H](C(=O)N[C@@H](C)C(=O)N[C@@H](CO)C(=O)N[C@H](C(=O)N[C@H](C(=O)N[C@@H](C)C(=O)NCC(=O)N[C@@H](CC(C)C)C(=O)NCC(=O)N[C@@H](CCCCN)C(=O)N[C@@H](CCCNC(=N)N)C(=O)O)C(C)C)C(C)C)C(C)C [LiVe2, GWLDIAKKVASVVAGLGKR] (H-GWLDIAKKVASVVAGLGKR-OH; N-terminus and C-terminus assumed) | 4 to 8 µg/mL | 64 to 128 µg/mL | 64 µg/mL (≈ 32.5 µM) | 40.* GWLDIAKKVASVVAGLGKR | – |
| CC(C)C[C@H](NC(=O)[C@H](CCCCN)NC(=O)[C@H](Cc1c[nH]c2ccccc12)NC(=O)[C@H](CC(C)C)NC(=O)[C@@H](NC(=O)[C@H](CC(C)C)NC(=O)[C@H](Cc1ccccc1)NC(=O)[C@H](CC(C)C)NC(=O)[C@@H](N)CCCCN)[C@@H](C)O)C(=O)N[C@@H](CCCCN)C(=O)N[C@@H](CCCNC(=N)N)C(=O)O [NaVi3, KLFLTLWKLKR] (H-KLFLTLWKLKR-OH; N-terminus and C-terminus assumed) | 8 to 16 µg/mL | 64 µg/mL (≈ 44.3 µM) | 128 µg/mL (≈ 88.5 µM) | 895.* KLFLTLWKLKR | – |
| CC[C@H](C)[C@H](NC(=O)CNC(=O)[C@H](CO)NC(=O)[C@H](CC(C)C)NC(=O)[C@H](CC(C)C)NC(=O)CN)C(=O)N[C@@H](CC(C)C)C(=O)NCC(=O)N[C@@H](C)C(=O)NCC(=O)N[C@@H](CCCCN)C(=O)N[C@@H](CCCCN)C(=O)N[C@H](C(=O)N[C@H](C(=O)N[C@@H](CS)C(=O)NCC(=O)N[C@@H](Cc1ccccc1)C(=O)N[C@@H](CO)C(=O)NCC(=O)N[C@@H](CC(C)C)C(=O)N[C@@H](CS)C(=O)O)C(C)C)[C@@H](C)CC [OdMa1] (H-GLLSGILGAGKKIVCGFSGLC-OH; N-terminus and C-terminus assumed) | 8 to 16 µg/mL | 128 µg/mL (≈ 64.2 µM) | 64 µg/mL (≈ 32.1 µM) | 71.* GLLSGILGAGKKIVCGFSGLC | – |
| CC[C@H](C)[C@H](NC(=O)[C@H](CCCCN)NC(=O)[C@H](CCCCN)NC(=O)CNC(=O)[C@H](C)NC(=O)CNC(=O)[C@H](CC(C)C)NC(=O)[C@H](CC(C)C)NC(=O)CNC(=O)[C@H](CO)NC(=O)[C@H](CC(C)C)NC(=O)[C@H](CC(C)C)NC(=O)CN)C(=O)N[C@H](C(=O)N[C@@H](CS)C(=O)NCC(=O)N[C@@H](CC(C)C)C(=O)N[C@@H](CO)C(=O)NCC(=O)N[C@@H](CCSC)C(=O)N[C@@H](CS)C(=O)O)C(C)C [OdMa3] (H-GLLSGLLGAGKKIVCGLSGMC-OH; N-terminus and C-terminus assumed) | 8 to 16 µg/mL | 64 µg/mL (≈ 32.4 µM) | 32 µg/mL (≈ 16.2 µM) | 59.* GLLSGLLGAGKKIVCGLSGMC | – |
| CC[C@H](C)[C@H](NC(=O)CN)C(=O)N[C@@H](CC(C)C)C(=O)N[C@@H](CO)C(=O)NCC(=O)N[C@@H](CC(C)C)C(=O)N[C@@H](CC(C)C)C(=O)NCC(=O)N[C@@H](C)C(=O)NCC(=O)N[C@@H](CCCCN)C(=O)N[C@@H](CCCCN)C(=O)N[C@H](C(=O)N[C@H](C(=O)N[C@@H](CS)C(=O)O)C(C)C)[C@@H](C)CC [OdMa4, GILSGLLGAGKKIVC] (H-GILSGLLGAGKKIVC-OH; N-terminus and C-terminus assumed) | 8 to 16 µg/mL | 32 µg/mL (≈ 22.4 µM) | > 128 µg/mL | 62.* GILSGLLGAGKKIVC | selective antimicrobial activity against the Gram-negative bacteria tested |
| CC[C@H](C)[C@H](NC(=O)CN)C(=O)N[C@@H](CC(C)C)C(=O)N[C@@H](CO)C(=O)NCC(=O)N[C@@H](CC(C)C)C(=O)N[C@@H](CC(C)C)C(=O)NCC(=O)N[C@@H](C)C(=O)NCC(=O)N[C@@H](CCCCN)C(=O)N[C@@H](CCCCN)C(=O)N[C@H](C(=O)N[C@H](C(=O)N[C@@H](CS)C(=O)NCC(=O)N[C@@H](CC(C)C)C(=O)N[C@@H](CO)C(=O)NCC(=O)N[C@@H](CC(C)C)C(=O)N[C@@H](CS)C(=O)O)C(C)C)[C@@H](C)CC [OdMa5] (H-GILSGLLGAGKKIVCGLSGLC-OH; N-terminus and C-terminus assumed) | 8 to 16 µg/mL | 64 to 128 µg/mL | 8 to 16 µg/mL | 1091.* GILSGLLGAGKKIVCGLSGLC | – |
| CC[C@H](C)[C@H](NC(=O)[C@H](CCCCN)NC(=O)[C@H](CCCCN)NC(=O)CNC(=O)[C@@H](NC(=O)CNC(=O)[C@H](CC(C)C)NC(=O)[C@@H](NC(=O)CNC(=O)[C@H](CO)NC(=O)[C@H](CC(C)C)NC(=O)[C@H](CC(C)C)NC(=O)CN)C(C)C)C(C)C)C(=O)N[C@H](C(=O)N[C@@H](CS)C(=O)NCC(=O)N[C@@H](CC(C)C)C(=O)N[C@@H](CO)C(=O)NCC(=O)N[C@@H](CC(C)C)C(=O)N[C@@H](CS)C(=O)O)C(C)C [OdMa6] (H-GLLSGVLGVGKKIVCGLSGLC-OH; N-terminus and C-terminus assumed) | 8 to 16 µg/mL | 128 µg/mL (≈ 64.9 µM) | 16 to 32 µg/mL | 1092.* GLLSGVLGVGKKIVCGLSGLC | – |
| CC(C)C[C@H](NC(=O)CNC(=O)[C@H](CO)NC(=O)[C@H](CC(C)C)NC(=O)CNC(=O)[C@H](CS)NC(=O)[C@H](CC(C)C)NC(=O)[C@@H](NC(=O)[C@H](CCCCN)NC(=O)[C@H](CCCCN)NC(=O)CNC(=O)[C@@H](NC(=O)CNC(=O)[C@H](CC(C)C)NC(=O)[C@@H](NC(=O)CNC(=O)[C@H](CO)NC(=O)[C@H](CC(C)C)NC(=O)[C@H](CC(C)C)NC(=O)CN)C(C)C)C(C)C)C(C)C)C(=O)N[C@@H](CS)C(=O)O [OdMa7] (H-GLLSGVLGVGKKVLCGLSGLC-OH; N-terminus and C-terminus assumed) | 8 to 16 µg/mL | 128 µg/mL (≈ 64.9 µM) | 16 to 32 µg/mL | 1093.* GLLSGVLGVGKKVLCGLSGLC | – |
